# From patent US20060166933A1, “Novel 2H-chromene derivatives as selective estrogen receptor modulators” (priority 2004, published 2006)
# Tests used:
# [1] = biological target: T1, human estrogen receptor α (Homo sapiens, UniProt P03372); assay: Estrogen Receptor α Flash Plate Assay (binding of radiolabeled estrogen); details: radiolabeled estrogen 0.5 nM, FlashPlate, 1 h room temperature; read-out: ER-α Binding
# T1 construct: purchased Panvera
# T1 sequence (P03372 1-595): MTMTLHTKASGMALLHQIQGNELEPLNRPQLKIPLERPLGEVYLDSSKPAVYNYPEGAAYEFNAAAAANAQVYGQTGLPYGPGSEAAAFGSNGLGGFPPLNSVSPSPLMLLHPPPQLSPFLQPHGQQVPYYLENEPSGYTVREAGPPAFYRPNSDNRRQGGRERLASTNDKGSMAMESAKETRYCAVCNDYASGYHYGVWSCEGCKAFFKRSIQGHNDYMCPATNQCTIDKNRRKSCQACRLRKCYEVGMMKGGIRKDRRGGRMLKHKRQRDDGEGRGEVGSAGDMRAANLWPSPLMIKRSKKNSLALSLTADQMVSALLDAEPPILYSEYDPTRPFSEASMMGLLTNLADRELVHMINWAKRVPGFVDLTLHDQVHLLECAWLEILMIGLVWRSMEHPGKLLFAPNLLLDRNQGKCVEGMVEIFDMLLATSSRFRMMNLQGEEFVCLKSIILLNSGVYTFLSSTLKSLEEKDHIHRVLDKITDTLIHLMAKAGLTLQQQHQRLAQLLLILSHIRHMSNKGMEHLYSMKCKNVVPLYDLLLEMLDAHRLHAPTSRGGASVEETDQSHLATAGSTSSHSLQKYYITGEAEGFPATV
# Procedure: Estrogen Receptor α Flash Plate Assay
# This assay monitors binding of radiolabeled estrogen to the estrogen receptor. It is performed on a BioMek 2000 (Beckman). Plates are read in a scintillation counter (Packard TopCount), with decreased counts an indication of binding of a compound to the receptor. The assay was run according to the procedure described by Allan, et al., Anal. Biochem. (1999), 275(2), 243-247.
# On day one, 100 μL of Estrogen Screening Buffer (ESB, Panvera) containing 5 mM dithiothreitol (DTT, Panvera), 0.5 μg mouse anti-estrogen receptor monoclonal antibody (SRA-1010, Stressgen) and 50 ng purified human estrogen receptor a (Panvera) were added to each well of a 96 well FlashPlate Plus plate crosslinked with goat anti-mouse antibodies (NEN Life Sciences). The plate was sealed and incubated at 4° C. overnight.
# On day two, each well was washed three times with 200 μL PBS, pH 7.2, at room temperature. To each well was then added 98 μL radiolabeled estrogen (0.5 nM, which equals 6 nCi for a 120 Ci/mmol batch, Amersham), diluted in ESB and 5 mM dithiothreitol (DTT). To individual wells were then added 2.5 μL test compound diluted in 30% (v/v) dimethyl sulfoxide/50 mM HEPES, pH 7.5. The wells were mixed three times by aspiration, the plate sealed and incubated at room temperature for one hour. The wells were then counted for 1 min in a TopCount scintillation counter (Packard).
# (§1) Representative compounds of the present invention were tested according to the procedures described in Examples 23-24, above for binding to the estrogen-α and estrogen-β receptors, with results as listed in Table 2, below.
# hER-β = biological target: T2, hER-β (Homo sapiens, UniProt Q92731); assay: Estrogen Receptor β Fluorescence Polarization Assay (Fluormone ES2 displacement); details: Fluormone ES2, 1 h room temperature, read-out: ER β-Binding
# T2 construct: purchased Panvera
# T2 sequence (Q92731 whole entry): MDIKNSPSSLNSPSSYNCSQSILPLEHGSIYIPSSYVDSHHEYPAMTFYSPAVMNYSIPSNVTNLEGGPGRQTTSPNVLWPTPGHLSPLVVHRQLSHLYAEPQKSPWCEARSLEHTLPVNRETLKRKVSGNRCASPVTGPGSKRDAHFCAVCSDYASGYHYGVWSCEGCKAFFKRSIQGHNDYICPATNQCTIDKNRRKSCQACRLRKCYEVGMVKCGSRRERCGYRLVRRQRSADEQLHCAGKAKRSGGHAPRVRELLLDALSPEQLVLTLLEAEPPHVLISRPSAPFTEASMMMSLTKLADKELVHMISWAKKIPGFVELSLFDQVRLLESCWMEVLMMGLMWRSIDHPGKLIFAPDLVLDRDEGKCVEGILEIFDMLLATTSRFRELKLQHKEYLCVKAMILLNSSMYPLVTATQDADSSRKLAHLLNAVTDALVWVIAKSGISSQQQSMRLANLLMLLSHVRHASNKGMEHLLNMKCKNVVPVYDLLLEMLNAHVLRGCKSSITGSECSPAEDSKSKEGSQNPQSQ
# Description: Estrogen Receptor β Fluorescence Polarization Assay
# This assay monitors binding of a fluorescent analog of estrogen (Fluormone ES2, Panvera) to the estrogen receptor. Plates are read in a fluorometer that can be set to polarization mode. A decrease in […] relative to vehicle control is an indication of binding of a compound to the receptor.
# It is crucial to avoid introduction of air bubbles into the reaction in each well of the 96 well plate throughout this procedure. (Bubbles on the surface of the reaction disrupt light flow, affecting the polarization reading.) However, it is also crucial to effectively mix the reaction components upon addition to the well.
# On ice, a 2× standard mixture of Assay Buffer (Panvera), 10 nM DTT and 40 nM ES2 was prepared. On ice, a 2× reaction mixture of Assay Buffer (Panvera), and 20 nM hER-β (Panvera) and 40 nM ES2 was also prepared.
# Dilutions of test compound were prepared in 30% (v/v) dimethyl sulfoxide/50 mM HEPES, pH 7.5. At this point, the dilutions were 40× the final required concentration.
# The standard mixture at 50 μL was then added to each well. The reaction mixture at 48 μL was added to all wells. The compound dilution at 2.5 μL was added to the appropriate wells. The reaction mixtures were mixed using a manual pipette, a roll of aluminum foil adhesive cover was placed on the plate and the plate incubated at room temperature for 1 hour.
# Each well on the plate was then read in an LjL Analyst with an excitation wavelength of […] and an emission wavelength of 538.
# as §1
Compound,IC50 [1] [nM],IC50 (hER-β) [nM]
OCCC1=CC(c2ccc(OCCN3CCCCC3)cc2)Oc2cc(O)ccc21 (stereo not drawn) [compound 6],> 10000,> 10000
Oc1ccc2c(c1)OC(c1ccc(OCCN3CCCCC3)cc1)C=C2C1CCCC1 (stereo not drawn) [compound 10],180,500
4-(2-Hydroxy-ethyl)-2-[4-(2-piperidin-1-yl-ethoxy)-phenyl]-2H-chromen-7-ol [ID No. 6],500,500
Oc1ccc2c(c1)OC(c1ccc(OCCN3CCCCC3)cc1)C1=C2CCCCC1 (stereo not drawn) [compound 9],59,690
4-Methyl-2-[4-(2-piperidin-1-yl-ethoxy)-phenyl]-2-H-chromen-7-ol [ID No. 4],2200,> 10000
"CC1=C(COCC[Si](C)(C)C)[C@H](c2ccc(OCCN3CCCCC3)cc2)Oc2cc(O)ccc21 (single isomer, unassigned) [compound 3]",180,> 10000
